Reference: patent publication US20060275294A1, “METHOD OF PREVENTION AND TREATMENT OF AGING, AGE-RELATED DISORDERS AND/OR AGE-RELATED MANIFESTATIONS INCLUDING ATHEROSCLEROSIS, PERIPHERAL VASCULAR DISEASE, CORONARY ARTERY DISEASE, OSTEOPOROSIS, ARTHRITIS, TYPE 2 DIABETES, DEMENTIA, ALZHEIMERS DISEASE AND CANCER” (priority 2002, published 2006)
Where two headings read alike, the source gives them in different places.

Columns and labels:
[1] = test system: human T, B and myeloma tumor cells; conditions: by promoting apoptosis; cited from earlier work
[2] = test system: Zucker lean and fatty rats; conditions: 50 mg/kg/day vs vehicle; cited from earlier work
[3] = test system: patients with primary hypercholesterolemia; conditions: cited from earlier work
[4] = test system: patients with type 2 diabetes; conditions: cited from earlier work
[5] = 80 mg daily; cited from earlier work
[6] = test system: MCF-7 breast cancer cells; conditions: absence of estradiol; cited from earlier work
KK/Ay mice = conditions: mouse, in vivo; cited from earlier work
[7] = test system: NOD/SCID mice engrafted with human primary leukemic cells; conditions: mouse, in vivo; cited from earlier work
[8] = test system: animals with experimental arthritis; conditions: prophylactic or therapeutic treatment; cited from earlier work
leukemic cells = conditions: concentration- and time-dependent; cited from earlier work
rat models = conditions: meta-analysis of 13 studies; cited from earlier work
sIL6R = conditions: four-day dietary intervention, exchange for LA; cited from earlier work
osteoblasts = conditions: cited from earlier work
[9] = test system: patients with Paget's bone disease; conditions: end of study, cited from earlier work
[10] = test system: human epidermoid head and neck KB and lung H1355 cancer cells; conditions: read-out: IC(50) growth inhibition; 48 h exposure; cited from earlier work
[11] = test system: patients with osteoarthritis; assay: Osteoarthritis patients in applicant's clinic; assay type: in vivo, human
Interleukin-6 = conditions: infusion; cited from earlier work
[12] = severe chronic renal failure or dialysis; cited from earlier work
[13] = test system: diabetic patients with active Charcot neuroarthropathy; conditions: cited from earlier work
[14] = test system: esophageal carcinoma cell line CE48T/VGH; conditions: cited from earlier work
[15] = test system: rat vascular smooth muscle cells; conditions: cited from earlier work
STAT1 and STAT3 = conditions: cited from earlier work
[16] = test system: human breast cancer MCF-7 cells; conditions: cited from earlier work
[17] = test system: renal cell carcinoma cell line, GRC-1; conditions: 20 micromol/L, 72 hours; cited from earlier work
[18] = test system: human prostate carcinoma PC-3 cell line; conditions: cited from earlier work
[19] = target: T1, epidermal growth factor receptor tyrosine kinase (Rattus norvegicus, UniProt G3V6K6); conditions: SHR vs normotensive Wistar rat cells; cited from earlier work
T1 construct: measured thymidine incorporation in epidermal growth factor-stimulated vascular smooth muscle cells; endogenous in cells; host or cells: aortic vascular smooth muscle cells of SHR and normotensive rats

[20] = test system: experimental diabetic rat model; conditions: cited from earlier work
[21] = 54 mg/day; cited from earlier work
[22] = test system: orthotopic prostate carcinoma model of PC-3 cells in nude mice; conditions: cited from earlier work
[23] = test system: New Zealand White rabbits; conditions: cited from earlier work
[24] = test system: three human pancreatic cancer cell types; conditions: three cell lines; read-out: mean IC(50) proliferation; cited from earlier work
mice = conditions: cited from earlier work
[25] = test system: IL-1 beta, IL-6, and TNF-alpha; conditions: cited from earlier work
[26] = test system: spontaneously hypertensive rats (SHR); conditions: cited from earlier work
[27] = test system: cultured human astrocytes; conditions: cited from earlier work
[28] = test system: cultured human pituitary adenoma cells; design: mean inhibition of thymidine uptake (+/−SD inhibition of basal) / mean inhibition of thymidine uptake: unit of the concentration uncertain; conditions: cited from earlier work
T lymphoma cells = conditions: cited from earlier work
IKK [29] = target: T2, IKK (Homo sapiens, UniProt O14920+O15111); conditions: human epithelial cells; cited from earlier work
T2 construct: endogenous in cells; also 'human epithelial cells'

IKK [30] = conditions: 50 to 200 μM, intestinal epithelial cell line; cited from earlier work
neutrophil = conditions: in vitro; cited from earlier work
[31] = test system: mouse mammary carcinoma 4T1 cells; conditions: dose- and time-dependent; cited from earlier work
[32] = test system: MMTV-Her-2/neu NF639 cell; conditions: cited from earlier work
JB6 cell = conditions: cited from earlier work
[33] = test system: murine neuron-like cells (N2a) and primary neurons with Swedish mutant APP; conditions: cited from earlier work
STAT-1 = conditions: cited from earlier work
NF-kappaB = conditions: cited from earlier work
[34] = test system: human epidermoid carcinoma (A431) cells; conditions: cited from earlier work
Tg APPsw transgenic mice = conditions: mouse, in vivo; cited from earlier work
Male Wistar rats = conditions: cited from earlier work

T2 sequence (O14920 whole entry): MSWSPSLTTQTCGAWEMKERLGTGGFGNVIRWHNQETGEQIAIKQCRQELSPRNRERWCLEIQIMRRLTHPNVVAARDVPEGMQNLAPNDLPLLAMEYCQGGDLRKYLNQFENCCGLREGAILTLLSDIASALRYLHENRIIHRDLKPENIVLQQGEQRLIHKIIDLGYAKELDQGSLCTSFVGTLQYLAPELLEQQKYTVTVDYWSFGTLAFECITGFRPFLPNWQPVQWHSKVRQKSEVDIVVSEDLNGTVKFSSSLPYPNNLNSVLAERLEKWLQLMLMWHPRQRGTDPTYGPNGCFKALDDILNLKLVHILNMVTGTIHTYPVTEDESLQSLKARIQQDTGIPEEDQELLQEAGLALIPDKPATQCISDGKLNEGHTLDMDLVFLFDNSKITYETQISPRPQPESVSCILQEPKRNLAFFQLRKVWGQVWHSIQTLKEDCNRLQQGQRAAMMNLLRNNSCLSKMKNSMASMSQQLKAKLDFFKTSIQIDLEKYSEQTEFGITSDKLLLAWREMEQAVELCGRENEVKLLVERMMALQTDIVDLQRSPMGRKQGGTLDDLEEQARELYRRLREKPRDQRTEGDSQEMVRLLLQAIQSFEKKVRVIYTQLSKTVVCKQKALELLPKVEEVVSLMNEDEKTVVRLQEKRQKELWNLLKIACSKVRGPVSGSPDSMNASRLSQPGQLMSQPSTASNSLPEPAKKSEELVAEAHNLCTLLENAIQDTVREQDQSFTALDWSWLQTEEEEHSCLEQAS
T2 sequence (O15111 whole entry): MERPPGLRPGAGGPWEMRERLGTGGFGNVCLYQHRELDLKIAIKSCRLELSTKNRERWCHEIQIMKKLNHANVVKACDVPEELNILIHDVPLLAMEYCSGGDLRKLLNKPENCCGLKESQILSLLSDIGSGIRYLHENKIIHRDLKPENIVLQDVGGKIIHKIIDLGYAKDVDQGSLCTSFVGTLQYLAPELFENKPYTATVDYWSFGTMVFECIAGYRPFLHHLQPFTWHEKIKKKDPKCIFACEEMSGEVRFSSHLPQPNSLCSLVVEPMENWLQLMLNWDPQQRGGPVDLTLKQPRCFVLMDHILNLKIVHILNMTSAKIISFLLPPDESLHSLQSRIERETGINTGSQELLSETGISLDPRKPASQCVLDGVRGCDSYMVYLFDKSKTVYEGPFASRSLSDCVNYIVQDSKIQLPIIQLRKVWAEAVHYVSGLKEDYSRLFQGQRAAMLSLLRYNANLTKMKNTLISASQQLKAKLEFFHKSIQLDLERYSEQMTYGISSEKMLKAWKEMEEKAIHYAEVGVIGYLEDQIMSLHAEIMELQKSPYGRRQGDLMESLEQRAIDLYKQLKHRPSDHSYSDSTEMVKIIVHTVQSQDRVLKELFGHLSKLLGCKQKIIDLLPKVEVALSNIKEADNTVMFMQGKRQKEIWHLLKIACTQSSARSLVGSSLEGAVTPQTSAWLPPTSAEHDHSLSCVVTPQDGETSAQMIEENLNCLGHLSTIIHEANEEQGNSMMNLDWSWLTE
T2 sequence (Q9Y6K9 whole entry partner): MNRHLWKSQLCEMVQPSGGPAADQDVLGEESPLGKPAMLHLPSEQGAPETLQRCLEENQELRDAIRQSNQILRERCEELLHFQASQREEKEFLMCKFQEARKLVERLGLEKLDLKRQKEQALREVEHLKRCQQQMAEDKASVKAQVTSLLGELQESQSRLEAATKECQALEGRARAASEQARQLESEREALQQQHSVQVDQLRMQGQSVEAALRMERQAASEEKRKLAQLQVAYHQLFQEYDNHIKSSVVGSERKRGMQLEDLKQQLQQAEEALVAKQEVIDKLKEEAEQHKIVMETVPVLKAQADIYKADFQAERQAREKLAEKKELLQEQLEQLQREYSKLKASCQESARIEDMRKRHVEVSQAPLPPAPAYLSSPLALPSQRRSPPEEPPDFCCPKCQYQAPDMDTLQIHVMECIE
T1 sequence (G3V6K6 25-1209): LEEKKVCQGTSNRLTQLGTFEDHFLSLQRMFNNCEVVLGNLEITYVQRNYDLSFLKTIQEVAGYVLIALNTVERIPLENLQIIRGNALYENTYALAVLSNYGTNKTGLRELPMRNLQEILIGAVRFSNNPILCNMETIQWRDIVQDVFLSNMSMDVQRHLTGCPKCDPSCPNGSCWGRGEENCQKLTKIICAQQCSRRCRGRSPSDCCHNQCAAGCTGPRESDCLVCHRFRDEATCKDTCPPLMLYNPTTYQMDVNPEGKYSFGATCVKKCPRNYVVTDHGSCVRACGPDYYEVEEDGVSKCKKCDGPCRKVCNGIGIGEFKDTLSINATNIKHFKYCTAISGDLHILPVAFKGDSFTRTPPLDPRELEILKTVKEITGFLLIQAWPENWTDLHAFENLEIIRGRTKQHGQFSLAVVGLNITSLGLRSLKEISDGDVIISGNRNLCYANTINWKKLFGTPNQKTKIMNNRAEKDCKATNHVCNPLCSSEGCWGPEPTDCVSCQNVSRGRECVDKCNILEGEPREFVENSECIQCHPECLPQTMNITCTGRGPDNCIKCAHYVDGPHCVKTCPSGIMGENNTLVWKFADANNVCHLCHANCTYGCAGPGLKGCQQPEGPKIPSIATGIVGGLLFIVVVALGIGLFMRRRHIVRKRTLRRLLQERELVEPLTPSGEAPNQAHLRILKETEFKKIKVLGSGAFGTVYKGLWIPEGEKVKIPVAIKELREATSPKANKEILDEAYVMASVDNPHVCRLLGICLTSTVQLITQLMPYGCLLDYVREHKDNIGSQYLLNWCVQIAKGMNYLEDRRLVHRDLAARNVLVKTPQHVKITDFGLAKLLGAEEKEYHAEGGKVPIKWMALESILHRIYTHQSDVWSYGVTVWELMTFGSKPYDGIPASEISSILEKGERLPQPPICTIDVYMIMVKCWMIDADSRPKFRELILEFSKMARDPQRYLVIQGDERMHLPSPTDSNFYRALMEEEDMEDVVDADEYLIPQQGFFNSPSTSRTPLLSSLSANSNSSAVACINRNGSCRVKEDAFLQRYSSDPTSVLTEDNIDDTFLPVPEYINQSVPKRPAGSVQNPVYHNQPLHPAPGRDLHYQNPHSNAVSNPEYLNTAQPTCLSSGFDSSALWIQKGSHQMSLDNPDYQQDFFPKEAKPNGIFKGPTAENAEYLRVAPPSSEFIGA

Question: Which “effect on human T, B and myeloma tumor cells” value [1] does the source give for CC(C)c1c(C(=O)Nc2ccccc2)c(-c2ccccc2)c(-c2ccc(F)cc2)n1CC[C@@H](O)C[C@@H](O)CC(=O)O [atorvastatin] here?
Answer: cytotoxic effect

Question: And the “increase in glucose infusion rate and glucose disposal (Rd)” value [2]?
Answer: approximately two-fold

Question: And the FMD ([3]; 2 weeks)?
Answer: higher than baseline

Question: What about the IL-6 levels ([3]; 3 and 9 months vs baseline) of the same compound?
Answer: significantly reduced

Question: And the sICAM-1 levels ([3]; FH 80 mg/day, NFH 10 mg/day, 2 weeks to 9 months vs baseline)?
Answer: significantly reduced

Question: What about the “relative risk reduction in the primary endpoint” value ([4]; 10 mg daily for four years) of the same compound?
Answer: 37%

Question: What about the “rate reduction of major cardiovascular events” value ([4]; 10 mg daily vs placebo) of the same compound?
Answer: 37%

Question: And the “patients with at least one major cardiovascular event” value ([4]; 10 mg daily, n=1428, median follow-up 3.9 years)?
Answer: 83

Question: And the “acute coronary heart disease events reduced” value ([4]; 10 mg daily)?
Answer: 36%

Question: And the adverse events ([4]; 10 mg daily)?
Answer: No excess of adverse events

Question: And the coronary re-vascularisations reduced ([4]; 10 mg daily)?
Answer: 31%

Question: What about the death rate reduced ([4]; 10 mg daily) of the same compound?
Answer: 27%

Question: And the “major cardiovascular event rate” value ([4]; 10 mg daily)?
Answer: 1.54 per 100 person-years at risk

Question: What about the “rate of stroke reduced” value ([4]; 10 mg daily) of the same compound?
Answer: 48%

Question: What about the “carotid IMT” value [5] of the same compound?
Answer: significant IMT regression

Question: What about the “proliferation of MCF-7 cells” value [6] of the same compound?
Answer: inhibit the proliferation

Question: And the insulin resistance index (KK/Ay mice)?
Answer: decreased

Question: And the non-HDL-cholesterol level (KK/Ay mice)?
Answer: significantly decreased

Question: Which survival [7] does the source give for O=P(O)(O)C(O)(Cc1cnc2ccccn12)P(=O)(O)O [YM529] here?
Answer: prolonged the survival

Question: What about the “severity of experimental arthritis” value [8] of the same compound?
Answer: suppressed the severity of disease

Question: And the “growth of leukemic cells incl. P-gp over-expressing cell line” value (leukemic cells)?
Answer: inhibited the growth

Question: Which “ischemia- and reperfusion-induced arrhythmias (incidence of VT and VF)” value (rat models) does the source give for CC/C=C\C/C=C\C/C=C\CCCCCCCC(=O)O [ALA, alpha-linolenic acid] here?
Answer: not

Question: What about the “reduction of fasting sIL6R concentration” value (sIL6R) of the same compound?
Answer: approximately 11%

Question: What does the source list for NCCC(O)(P(=O)(O)O)P(=O)(O)O [pamidronate]?
Answer: production by osteoblasts of interleukin-6 (osteoblasts): inhibit; HDL-C increased ([9]; 60 mg intravenous, three cycles every 3 months): 10.3%; LDL-C decreased ([9]; 60 mg intravenous, three cycles): 5.5%; TC/HDL-C decreased [9]: 12.5%; bone ALP and total ALP [9]: significantly fell; IC50 [10]: 25 µM; pain in patients with osteoarthritis (with and without osteoporosis) [11]: pain reduction; mean serum levels of Interleukin-6 (Interleukin-6): significantly decreased; adverse effect of large intravenous dosages [12]: marked hypocalcemia and/or hypophosphatemia; Urinary deoxypyridinoline (means+/−SEM) ([13]; single infusion 90 mg, 4 weeks): 4.4+/−0.4 nmol/mmol creatinine; bone-specific alkaline phosphatase ([13]; single infusion 90 mg, after 4 weeks): 14.1+/−1.2 u/l; symptoms ([13]; vs placebo group): improvement

Question: With COc1cccc(-c2cc(=O)c3ccccc3o2)c1N [PD98059] as the compound, how does the “protection of IL-6 against apoptosis” value [14] read?
Answer: completely blocked

Question: What about the “expression of IL-6 mRNA induced by Ang II” value [15] of the same compound?
Answer: completely abolished

Question: What does the source list for O=c1c(-c2ccc(O)cc2)coc2cc(O)cc(O)c12 [genistein, 4′,5,7-trihydroxyisoflavone]?
Answer: CuLDL-induced enhancement of STAT1 and STAT3 Tyr-phosphorylation and DNA-binding activity (STAT1 and STAT3): markedly prevented; growth of MCF-7 cells [16]: significantly inhibit the growth; band of p27, Western blot [17]: 65.4+/−4.7 gray scale value; cells in G2 phase [17]: 26.2%; cells in G(1) phase [17]: 73.8%; IL-6- and OM-mediated effects (growth, resistance to etoposide and cisplatin) [18]: inhibited; 50% inhibitory dose (IC50) for thymidine incorporation [19]: higher for the SHR vascular smooth muscle cells; retinal albumin by Western blot ([20]; 300 mg): decreased; retinal vascular leakage of radiolabeled sucrose ([20]; 150 or 300 mg/kg food, 6 months, vs diabetic control): significantly less; attenuating menopause-related bone loss [21]: as effective as hormone replacement therapy; inhibition of primary tumor growth ([22]; combined with radiation 5 Gy): 87%; inhibition of primary tumor growth ([22]; genistein alone, 5 mg/d p.o.): 30%; size of lymph nodes ([22]; genistein alone): increased the size of lymph nodes; average cross sectional area of atherosclerotic lesion ([23]; hyperlipidemic plus genistein diet, 4 and half months): 0.997 mm2; MMP-3 expression ([23]; western blotting, vs HD group): reduction; IC50 [24]: 223 µM; serum levels of autoantibodies to collagen II (mice; immunized mice): significantly lower; DTH reaction to oxazolone and granulocyte-mediated response (mice; vs control mice): significantly suppressed; LPS-induced increase in IL-1 beta, IL-6, and TNF-alpha mRNA levels ([25]; 37 microM): completely or more than 80% blocked; LPS activation of NF-kappa B [25]: reduced; LPS-induced IL-6 protein synthesis and IL-6 bioactivity [25]: reduced to baseline levels; wall thickness of the basilar artery ([26]; 1 mg/kg chow, 2 months): reduced the wall thickness significantly; vasodilatation induced by ACh and Y-26763 [26]: significantly improved; stimulatory effect of PDGF on sAPPalpha [27]: blocked; mean inhibition of thymidine uptake (+/−SD inhibition of basal) ([28]; 74 (unit uncertain)): 61.96+/−18.96%; mean inhibition of thymidine uptake ([28]; 740 (unit uncertain)): 92.65+/−8.59%; Epidermal growth factor stimulated thymidine uptake ([28]; clinically nonfunctioning adenomas): inhibited; expression of IL-6 mRNA induced by Ang II [15]: completely abolished; nuclear NF-kappa B levels (T lymphoma cells): marked reduction

Question: With Epigallocatechin-3-gallate [EGCG] as the compound, how does the “TNF-α-mediated IKK activation” value (IKK [29]) read?
Answer: inhibits

Question: And the IKK activity (IKK [30])?
Answer: inhibited

Question: What about the “chemokine induced neutrophil chemotaxis” value (neutrophil) of the same compound?
Answer: dramatically inhibit

Question: What about the “cell proliferation and apoptosis” value [31] of the same compound?
Answer: inhibition of cell proliferation

Question: And the “cell growth in culture and soft agar” value [32]?
Answer: inhibited

Question: What about the “EGF- or TPA-induced JB6 cell transformation” value (JB6 cell) of the same compound?
Answer: inhibit

Question: And the “activator protein-1 (AP-1) activation” value (JB6 cell)?
Answer: inhibited

Question: And the “reduction of Abeta generation” value [33]?
Answer: ≤ 54%

Question: What about the “INF-γ-induced STAT1 activation” value (STAT-1; T84 epithelial and THP-1 monocytes/macrophages) of the same compound?
Answer: significantly reduced

Question: And the “interferon-γ-induced STAT-1 activation” value (STAT-1; carcinoma-derived cell lines of non-gut origin)?
Answer: blocked

Question: What about the “NF-kappaB nuclear translocation and IL-6 secretion induced by UVB and UVA” value (NF-kappaB) of the same compound?
Answer: dramatically inhibited

Question: What about the “NF-kappaB levels in cytoplasm and nucleus” value ([34]; 10-80 microM, A431 cells and NHEK) of the same compound?
Answer: lowering of NF-kappaB levels

Question: And the “cell growth of A431 cells” value ([34]; dose-dependent, not in NHEK)?
Answer: inhibition of cell growth

Question: What about the “beta-amyloid (Abeta) levels and plaques” value (Tg APPsw transgenic mice) of the same compound?
Answer: decreased

Question: And the “phosphorylation of c-Jun” value (Male Wistar rats; 10 mg/kg iv then 10 mg/kg/h, all time points)?
Answer: markedly attenuated

Question: And the “Plasma IL-6 and creatine phosphokinase levels” value (Male Wistar rats; 10 mg/kg iv then 10 mg/kg/h)?
Answer: decreased

Question: What about the “myocardial damage and myeloperoxidase activity” value (Male Wistar rats; 10 mg/kg iv then 10 mg/kg/h) of the same compound?
Answer: reduced

Question: And the “reperfusion-induced activation of IKK, degradation of IκB-α, activation of NF-κB” value (Male Wistar rats; rat, in vivo)?
Answer: reduced
